# Assays:
# barnyardgrass [1] = assay: Test A postemergence; type: in vivo, Echinochloa crus-galli
# In short: (§1)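 Both timings tested concurrently in loam/sand soil: preemergence by directed soil spray, postemergence on plants of 2–10 cm at the one- to two-leaf stage. Greenhouse holding period was approximately 10 days before visual injury assessment (0–100, 0 = no effect).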
# morningglory [2] = assay: Test A postemergence; type: in vivo, Ipomoea spp.
# In short: as §1
# barnyardgrass [3] = assay: Test B flood; type: in vivo, Echinochloa crus-galli; details: 250 g ai/ha, visual rating on 0 to 100 scale (0 no effect, 100 complete control), 13 to 15 days
# In short: (§2)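 Plants were grown to the 2-leaf stage, then pots were flooded to 3 cm above the soil and compounds were applied directly into the paddy water. Water depth was held for the whole test; after 13 to 15 days in a greenhouse, injury was visually rated against untreated controls (0 = no effect, 100 = complete control).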
# crabgrass, large [4] = assay: Test A postemergence; type: in vivo, Digitaria sanguinalis
# In short: as §1
# sedge, umbrella [5] = assay: Test C flooded paddy test; type: in vivo, Cyperus difformis; details: Flood
# In short: (§3)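 Visual injury ratings against untreated controls, taken 13 to 15 days after compound was added to paddy water standing 3 cm above the soil.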
# barnyardgrass [6] = assay: Test A preemergence; type: in vivo, Echinochloa crus-galli; details: preemergence
# In short: as §1
# morningglory [7] = assay: Test A preemergence; type: in vivo, Ipomoea spp.; details: preemergence
# In short: as §1
# wheat [8] = assay: Test A postemergence; type: in vivo, Triticum aestivum
# In short: as §1
# velvetleaf [9] = assay: Test A preemergence; type: in vivo, Abutilon theophrasti; details: preemergence
# In short: as §1
# rice [10] = assay: Test C flooded paddy test; type: in vivo, Oryza sativa; details: Flood
# In short: as §3
# corn [11] = assay: Test A preemergence; type: in vivo, Zea mays; details: preemergence
# In short: as §1
# rice [12] = assay: Test B flood; type: in vivo, Oryza sativa; details: 250 g ai/ha, visual rating on 0 to 100 scale (0 no effect, 100 complete control), 13 to 15 days
# In short: as §2
# wheat [13] = assay: Test A preemergence; type: in vivo, Triticum aestivum; details: preemergence
# In short: as §1
# ducksalad [14] = assay: Test C flooded paddy test; type: in vivo, Heteranthera limosa; details: Flood
# In short: as §3
# foxtail, giant [15] = assay: Test A postemergence; type: in vivo, Setaria faberii
# In short: as §1
# barnyardgrass [16] = assay: Test C flooded paddy test; type: in vivo, Echinochloa crus-galli; details: Flood
# In short: as §3
# pigweed [17] = assay: Test A preemergence; type: in vivo, Amaranthus retroflexus; details: preemergence
# In short: as §1
# foxtail, giant [18] = assay: Test A preemergence; type: in vivo, Setaria faberii; details: preemergence
# In short: as §1
# ducksalad [19] = assay: Test B flood; type: in vivo, Heteranthera limosa; details: 250 g ai/ha, visual rating on 0 to 100 scale (0 no effect, 100 complete control), 13 to 15 days
# In short: as §2
# pigweed [20] = assay: Test A postemergence; type: in vivo, Amaranthus retroflexus
# In short: as §1
# crabgrass, large [21] = assay: Test A preemergence; type: in vivo, Digitaria sanguinalis; details: preemergence
# In short: as §1
# corn [22] = assay: Test A postemergence; type: in vivo, Zea mays
# In short: as §1
# velvetleaf [23] = assay: Test A postemergence; type: in vivo, Abutilon theophrasti
# In short: as §1
# sedge, umbrella [24] = assay: Test B flood; type: in vivo, Cyperus difformis; details: 250 g ai/ha, visual rating on 0 to 100 scale (0 no effect, 100 complete control), 13 to 15 days
# In short: as §2
# [25] = Postemergence, 500 g ai/ha, 0 to 100 scale (0 no effect, 100 complete control)
# [26] = postemergence, 125 g ai/ha, about 10 days, visual rating on 0 to 100 scale (0 no effect, 100 complete control)
# [27] = Postemergence, 125 g ai/ha, 0 to 100 scale, 0 no effect, 100 complete control
# [28] = 31 g ai/ha, scale 0 to 100 (0 no effect, 100 complete control)
# [29] = 62 g ai/ha, scale 0 to 100 (0 no effect, 100 complete control)
# [30] = 125 g ai/ha, scale 0 to 100 (0 no effect, 100 complete control)
# [31] = 125 g ai/ha, visual injury approx. 10 days after treatment
# [32] = 500 g ai/ha, visual injury after approx. 10 days, 0 to 100 scale (0 no effect, 100 complete control)
# [33] = 125 g ai/ha, visual injury, 0 to 100 scale, approx. 10 days
structure (smiles),measurement,setting,value
CCc1cc(C(=O)NC)nn1Cc1ccnc(C(F)(F)F)c1 [Compound 204],Barnyardgrass plant response rating,barnyardgrass [1]; [25],50
same,Barnyardgrass plant response rating,barnyardgrass [1]; [26],10
same,Morningglory plant response rating,morningglory [2]; [27],80
same,Morningglory plant response rating,morningglory [2]; [25],90
same,"Plant response rating, Barnyardgrass",barnyardgrass [3],0
same,"Crabgrass, Large plant response rating","crabgrass, large [4]; [25]",80
same,"Crabgrass, Large plant response rating","crabgrass, large [4]; [26]",10
same,"Plant response rating, Sedge, Umbrella","sedge, umbrella [5]; [28]",0
same,"Plant response rating, Sedge, Umbrella","sedge, umbrella [5]; [29]",60
same,"Plant response rating, Sedge, Umbrella","sedge, umbrella [5]; [30]",80
same,"Plant response rating, Sedge, Umbrella","sedge, umbrella [5]; 250 g ai/ha, scale 0 to 100",80
same,"Barnyardgrass plant response rating (0 to 100 scale, 0 is no effect, 100 is complete control)",barnyardgrass [6]; [31],0
same,Barnyardgrass plant response rating,barnyardgrass [6]; [32],80
same,Morningglory plant response rating (0 to 100 scale),morningglory [7]; [31],30
same,Wheat plant response rating,wheat [8]; [27],0
same,Wheat plant response rating,wheat [8]; [25],10
same,Velvetleaf plant response rating (0 to 100 scale),velvetleaf [9]; [31],10
same,"Plant response rating, Rice",rice [10]; [28],0
same,"Plant response rating, Rice",rice [10]; [29],0
same,"Plant response rating, Rice",rice [10]; [30],0
same,"Plant response rating, Rice","rice [10]; 250 g ai/ha, scale 0 to 100",0
same,Corn plant response rating (0 to 100 scale),corn [11]; [31],0
same,Corn plant response rating,corn [11]; [32],10
same,"Plant response rating, Rice",rice [12],0
same,Wheat plant response rating (0 to 100 scale),wheat [13]; [31],0
same,"Plant response rating, Ducksalad",ducksalad [14]; [28],0
same,"Plant response rating, Ducksalad",ducksalad [14]; [29],0
same,"Plant response rating, Ducksalad",ducksalad [14]; [30],50
same,"Plant response rating, Ducksalad","ducksalad [14]; 250 g ai/ha, scale 0 to 100",90
same,"Foxtail, Giant plant response rating","foxtail, giant [15]; [25]",70
same,"Foxtail, Giant plant response rating","foxtail, giant [15]; [26]",10
same,"Plant response rating, Barnyardgrass",barnyardgrass [16]; [28],0
same,"Plant response rating, Barnyardgrass",barnyardgrass [16]; [29],0
same,"Plant response rating, Barnyardgrass",barnyardgrass [16]; [30],0
same,"Plant response rating, Barnyardgrass","barnyardgrass [16]; 250 g ai/ha, scale 0 to 100",0
same,Pigweed plant response rating (0 to 100 scale),pigweed [17]; [31],100
same,"Foxtail, Giant plant response rating (0 to 100 scale)","foxtail, giant [18]; [31]",50
same,"Foxtail, Giant plant response rating","foxtail, giant [18]; [32]",100
same,"Plant response rating, Ducksalad",ducksalad [19],95
same,Pigweed plant response rating,pigweed [20]; [27],90
same,Pigweed plant response rating,pigweed [20]; [25],90
same,"Crabgrass, Large plant response rating (0 to 100 scale)","crabgrass, large [21]; [31]",100
same,"Crabgrass, Large plant response rating","crabgrass, large [21]; [32]",100
same,Corn plant response rating,corn [22]; [25],30
same,Corn plant response rating,corn [22]; [26],10
same,Velvetleaf plant response rating,velvetleaf [23]; [27],40
same,Velvetleaf plant response rating,velvetleaf [23]; [25],50
same,"Plant response rating, Sedge, Umbrella","sedge, umbrella [24]",90
CCCCNC(=O)c1cc(CC)n(Cc2ccnc(C(F)(F)F)c2)n1 [Compound 141],Barnyardgrass plant response rating,barnyardgrass [1]; [25],80
same,Barnyardgrass plant response rating,barnyardgrass [1]; [26],40
same,Morningglory plant response rating,morningglory [2]; [25],100
same,Morningglory plant response rating,morningglory [2]; [26],90
same,"Plant response rating, Barnyardgrass",barnyardgrass [3],45
same,"Crabgrass, Large plant response rating","crabgrass, large [4]; [25]",90
same,"Crabgrass, Large plant response rating","crabgrass, large [4]; [26]",70
same,"Plant response rating, Sedge, Umbrella","sedge, umbrella [5]; [28]",30
same,"Plant response rating, Sedge, Umbrella","sedge, umbrella [5]; [29]",70
same,"Plant response rating, Sedge, Umbrella","sedge, umbrella [5]; 125 g ai/ha, scale 0 to 100",95
same,"Plant response rating, Sedge, Umbrella","sedge, umbrella [5]; 250 g ai/ha, scale 0 to 100",100
same,Barnyardgrass plant response rating,barnyardgrass [6]; [33],70
same,Barnyardgrass plant response rating,barnyardgrass [6]; [32],100
same,Morningglory plant response rating,morningglory [7]; [33],50
same,Morningglory plant response rating,morningglory [7]; [32],100
same,Wheat plant response rating,wheat [8]; [25],80
same,Wheat plant response rating,wheat [8]; [26],30
same,Velvetleaf plant response rating,velvetleaf [9]; [33],10
same,Velvetleaf plant response rating,velvetleaf [9]; [32],50
same,"Plant response rating, Rice",rice [10]; [28],0
same,"Plant response rating, Rice",rice [10]; [29],0
same,"Plant response rating, Rice","rice [10]; 125 g ai/ha, scale 0 to 100",20
same,"Plant response rating, Rice","rice [10]; 250 g ai/ha, scale 0 to 100",20
same,Corn plant response rating,corn [11]; [33],40
same,Corn plant response rating,corn [11]; [32],80
same,"Plant response rating, Rice",rice [12],20
same,Wheat plant response rating,wheat [13]; [33],30
same,Wheat plant response rating,wheat [13]; [32],90
same,"Plant response rating, Ducksalad",ducksalad [14]; [28],40
same,"Plant response rating, Ducksalad",ducksalad [14]; [29],80
same,"Plant response rating, Ducksalad","ducksalad [14]; 125 g ai/ha, scale 0 to 100",95
same,"Plant response rating, Ducksalad","ducksalad [14]; 250 g ai/ha, scale 0 to 100",100
same,"Foxtail, Giant plant response rating","foxtail, giant [15]; [25]",90
same,"Foxtail, Giant plant response rating","foxtail, giant [15]; [26]",80
same,"Plant response rating, Barnyardgrass",barnyardgrass [16]; [28],0
same,"Plant response rating, Barnyardgrass",barnyardgrass [16]; [29],0
same,"Plant response rating, Barnyardgrass","barnyardgrass [16]; 125 g ai/ha, scale 0 to 100",20
same,"Plant response rating, Barnyardgrass","barnyardgrass [16]; 250 g ai/ha, scale 0 to 100",35
same,Pigweed plant response rating,pigweed [17]; [33],100
same,Pigweed plant response rating,pigweed [17]; [32],100
same,"Foxtail, Giant plant response rating","foxtail, giant [18]; [33]",90
same,"Foxtail, Giant plant response rating","foxtail, giant [18]; [32]",100
same,"Plant response rating, Ducksalad",ducksalad [19],100
same,Pigweed plant response rating,pigweed [20]; [25],100
same,Pigweed plant response rating,pigweed [20]; [26],60
same,"Crabgrass, Large plant response rating","crabgrass, large [21]; [33]",100
same,"Crabgrass, Large plant response rating","crabgrass, large [21]; [32]",100
same,Corn plant response rating,corn [22]; [25],90
same,Corn plant response rating,corn [22]; [26],50
same,Velvetleaf plant response rating,velvetleaf [23]; [25],100
same,Velvetleaf plant response rating,velvetleaf [23]; [26],30
same,"Plant response rating, Sedge, Umbrella","sedge, umbrella [24]",95

# — patent US20150105252A1, “SUBSTITUTED PYRAZOLES AS HERBICIDES” (E I DU PONT DE NEMOURS AND COMPANY, priority 2013, published 2015)
